Experimental data as given in publication PMC12652692, “Synthesis and In Vitro Anticancer Evaluation of Novel Phosphonium Derivatives of Chrysin” (International Journal of Molecular Sciences, 2025).

Columns and labels:
Test in all cases: NCI60 five-dose screen
Type in all cases: cell-based
SF-539 = conditions: Homo sapiens; SF-539, CNS Cancer
Procedure: (§1) Since all new conjugates (3a–h) had notable antiproliferative activities on several tumor cell lines in the course of the one-dose screening, they were subjected to a five-dose test. […] J. Mol. Sci. 2025, 26, 11063 10 of 10 S.3. NCI60 Screening A detailed description of the NCI screening procedures can also be found on the website of NCI [39], and in our previous work. S.3.1. One-Dose Screen All candidates were examined at first at a single high dose (10 μM) in the full NCI60 cell panel. The value reported for the one-dose test is growth relative to the no-drug control and relative to the time zero number of cells. This made possible the disclosure of both growth inhibition (numbers between 0 and 100) and lethality (numbers less than 0). For example, a value of 100 means no growth inhibition. A value of 20 would mean 80% growth inhibition. A value of 0 means no net growth over the course of the analysis. A value of −20 would mean 20% lethality. A value of −100 means all cells are dead. S.3.2. […] The human tumor cell lines of the cancer screening panel were grown in RPMI 1640 medium containing 5% fetal bovine serum and 2 mM l-glutamine. Characteristically, cells were injected in 96-well microtiter plates in 0.1 mL at plating densities ranging from 5000 to 40,000 cells/well, depending on the doubling time of individual cell lines. After cell inoculation, the microtiter plates were incubated at 37 °C, 5% carbon dioxide, 95% air, and 100% relative humidity for 24 hours before the addition of tested compounds. After 24 hours, 2 plates of each cell line were fixed in situ with Cl3COOH (TCA), to represent a measurement of the cell population for each cell line at the time of drug addition (tz). Tested compounds were solubilized in DMSO at 400-fold the desired final maximum test concentration and stored frozen before application. In the course of the drug addition, an aliquot of frozen concentrate was thawed and diluted to twice the desired final maximum test concentration with a complete medium containing 50 μg mL−1 gentamicin. Additional four, 10-fold or ½ log serial dilutions were produced to furnish a total of five drug concentrations plus control. Aliquots of 0.1 mL of these different drug dilutions were added to the appropriate microtiter wells already containing 0.1 mL of medium, resulting in the required final drug concentrations. Following drug addition, the plates were incubated at 37 °C, 5% carbon dioxide, 95% air, and 100% relative humidity for an additional 48 hours. For adherent cells, the test was finished by the addition of cold Cl3COOH. Cells were fixed in situ by the addition of 50 μL of cold 50% (w/v) Cl3COOH, and incubated at 4 °C for 1 hour. The supernatant was discarded, and the plates were washed with H2O (5×) and dried in air. Sulforhodamine B (SRB) solution (0.1 mL) at 0.4% (w/v) in 1% CH3COOH was added to each well, and plates were incubated at RT for 10 min. After staining, the unbound dye was removed by washing five times with 1% CH3COOH, and the plates were dried in the air. The bound stain is afterward solubilized with a 10 mM trizma base, and the absorbance is read on an automated plate reader at λ = 515 nm. Utilizing the seven absorbance measurements [time zero (tz), control growth (c), and test growth in the presence of the drug at the five concentration levels (ti)], the percentage growth was determined at each of the drug concentration levels. Growth inhibition (%) was calculated as: [(ti − tz)/(c − tz)] × 100, for concentrations where ti ≥ tz (1) [(ti − tz)/(tz)] × 100, for concentrations where ti < tz. (2) Three dose‒response parameters were calculated as follows. GI50 (growth inhibition of 50%) was determined from Equation (3), which is the drug concentration resulting in a 50% reduction in the net protein increase (as measured by SRB staining) in control cells in the course of the drug incubation. [(ti − tz)/(c − tz)] × 100 = 50 (3)

DU-145 = conditions: Homo sapiens; DU-145, Prostate Cancer
Procedure: as §1

IGROV1 = conditions: Homo sapiens, IGROV-1; IGROV1, Ovarian Cancer
Procedure: as §1

MCF7 = conditions: Homo sapiens; MCF7, Breast Cancer
Procedure: as §1

M14 = conditions: Homo sapiens; M14, Melanoma
Procedure: as §1

NCI/ADR-RES = conditions: Homo sapiens, Ovarian Cancer
Procedure: as §1

OVCAR-3 = conditions: Homo sapiens; OVCAR-3, Ovarian Cancer
Procedure: as §1

HL-60(TB) = conditions: Homo sapiens, Leukemia
Procedure: as §1

OVCAR-8 = conditions: Homo sapiens; OVCAR-8, Ovarian Cancer
Procedure: as §1

MDA-MB-468 = conditions: Homo sapiens; MDA-MB-468, Breast Cancer
Procedure: as §1

SK-MEL-28 = conditions: Homo sapiens; SK-MEL-28, Melanoma
Procedure: as §1

HOP-62 = conditions: Homo sapiens; HOP-62, Non-small-Cell Lung Cancer
Procedure: as §1

MOLT-4 = conditions: Homo sapiens; MOLT-4, Leukemia
Procedure: as §1

LOX IMVI = conditions: Homo sapiens, Melanoma
Procedure: as §1

SW-620 = conditions: Homo sapiens; SW-620, Colon Cancer
Procedure: as §1

SF-295 = conditions: Homo sapiens; SF-295, CNS Cancer
Procedure: as §1

SN12C = conditions: Homo sapiens, Renal Cancer
Procedure: as §1

OVCAR-4 = conditions: Homo sapiens; OVCAR-4, Ovarian Cancer
Procedure: as §1

MDA-MB231ATCC = conditions: Homo sapiens, MDA-MB-231, Breast Cancer
Procedure: as §1

UACC-62 = conditions: Homo sapiens; UACC-62, Melanoma
Procedure: as §1

SK-MEL-5 = conditions: Homo sapiens; SK-MEL-5, Melanoma
Procedure: as §1

SK-OV-3 = conditions: Homo sapiens; SK-OV-3, Ovarian Cancer
Procedure: as §1

| Compound | GI50 (SF-539) | GI50 (DU-145) | GI50 (IGROV1) | GI50 (MCF7) | GI50 (M14) | GI50 (NCI/ADR-RES) | GI50 (OVCAR-3) | GI50 (HL-60(TB)) | GI50 (OVCAR-8) | GI50 (MDA-MB-468) | GI50 (SK-MEL-28) | GI50 (HOP-62) | GI50 (MOLT-4) | GI50 (LOX IMVI) | GI50 (SW-620) | GI50 (SF-295) | GI50 (SN12C) | GI50 (OVCAR-4) | GI50 (MDA-MB231ATCC) | GI50 (UACC-62) | further results |
| --- | --- | --- | --- | --- | --- | --- | --- | --- | --- | --- | --- | --- | --- | --- | --- | --- | --- | --- | --- | --- | --- |
| O=c1cc(-c2ccccc2)oc2cc(OCCCC[P+](c3ccccc3)(c3ccccc3)c3ccccc3)cc(O)c12 [3a] | 380 nM | 507 nM | 405 nM | 291 nM | 378 nM | 3290 nM | 368 nM | 167 nM | 350 nM | 128 nM | 474 nM | 480 nM | 338 nM | 326 nM | 343 nM | 297 nM | 330 nM | 370 nM | 240 nM | 292 nM | GI50 (SK-MEL-5): 166 nM; GI50 (SK-OV-3): 329 nM |
| Cc1ccc([P+](CCCCOc2cc(O)c3c(=O)cc(-c4ccccc4)oc3c2)(c2ccc(C)cc2)c2ccc(C)cc2)cc1 [3b] | 498 nM | 223 nM | 416 nM | 268 nM | 331 nM | 1180 nM | 196 nM | 140 nM | 337 nM | 123 nM | 514 nM | 307 nM | 322 nM | 287 nM | 354 nM | 215 nM | 389 nM | 247 nM | 320 nM | 344 nM | GI50 (SK-MEL-5): 153 nM; GI50 (SK-OV-3): 301 nM |
| COc1ccc([P+](CCCCOc2cc(O)c3c(=O)cc(-c4ccccc4)oc3c2)(c2ccc(OC)cc2)c2ccc(OC)cc2)cc1 [3c] | 410 nM | 410 nM | 413 nM | 407 nM | 478 nM | 2600 nM | 288 nM | 288 nM | 408 nM | 248 nM | 453 nM | 732 nM | 453 nM | 355 nM | 351 nM | 1060 nM | 317 nM | 382 nM | 315 nM | 317 nM | GI50 (SK-MEL-5): 331 nM; GI50 (SK-OV-3): 382 nM |
| O=c1cc(-c2ccccc2)oc2cc(OCCCC[P+](c3ccc(F)cc3)(c3ccc(F)cc3)c3ccc(F)cc3)cc(O)c12 [3d] | 1930 nM | 1720 nM | 1890 nM | 1620 nM | 1750 nM | 15900 nM | 1420 nM | 1340 nM | 1840 nM | 1100 nM | 1690 nM | 1560 nM | 1900 nM | 1690 nM | 1460 nM | 1520 nM | 2490 nM | 1640 nM | 1910 nM | 2050 nM | GI50 (SK-MEL-5): 1510 nM; GI50 (SK-OV-3): 1620 nM |
| O=c1cc(-c2ccccc2)oc2cc(OCCCC[P+](C3CCCCC3)(C3CCCCC3)C3CCCCC3)cc(O)c12 [3e] | 751 nM | 1240 nM | 774 nM | 956 nM | 515 nM | 8440 nM | 381 nM | 184 nM | 595 nM | 273 nM | 423 nM | 1560 nM | 1010 nM | 938 nM | 649 nM | 1400 nM | 509 nM | 686 nM | 366 nM | 368 nM | GI50 (SK-MEL-5): 369 nM; GI50 (SK-OV-3): 1470 nM |
| COc1c(C)cc([P+](CCCCOc2cc(O)c3c(=O)cc(-c4ccccc4)oc3c2)(c2cc(C)c(OC)c(C)c2)c2cc(C)c(OC)c(C)c2)cc1C [3f] | 367 nM | 339 nM | 346 nM | 260 nM | 329 nM | 1580 nM | 334 nM | 78 nM | 350 nM | 64 nM | 491 nM | 311 nM | 238 nM | 284 nM | 323 nM | 240 nM | 313 nM | 351 nM | 258 nM | 312 nM | GI50 (SK-MEL-5): 168 nM; GI50 (SK-OV-3): 263 nM |
| Cc1ccccc1[P+](CCCCOc1cc(O)c2c(=O)cc(-c3ccccc3)oc2c1)(c1ccccc1C)c1ccccc1C [3g] | 187 nM | 376 nM | 428 nM | 267 nM | 335 nM | 2140 nM | 216 nM | 180 nM | 560 nM | 148 nM | 323 nM | 332 nM | 235 nM | 170 nM | 274 nM | 648 nM | 230 nM | 429 nM | 337 nM | 319 nM | GI50 (SK-MEL-5): 198 nM; GI50 (SK-OV-3): 277 nM |
| O=c1cc(-c2ccccc2)oc2cc(OCCCC[P+](c3ccccc3)(c3ccccc3)c3ccccn3)cc(O)c12 [3h] | 1060 nM | 1220 nM | 653 nM | 396 nM | 564 nM | 7550 nM | 418 nM | 130 nM | 494 nM | 176 nM | 570 nM | 1520 nM | 424 nM | 694 nM | 901 nM | 1360 nM | 510 nM | 1140 nM | 906 nM | 549 nM | GI50 (SK-MEL-5): 278 nM; GI50 (SK-OV-3): 1520 nM |
